From US20230390282A1, “TREATMENT OF EYE CONDITIONS” (The University of Birmingham, priority 2020, published 2023)
Entries after “also recorded” stand apart in the source; their conditions may differ.

Columns and labels:
[1] = system: dorsal root ganglion neuron (DRGN) cultures; test: Primary adult rat DRGN cultures: survival and neurite outgrowth; assay type: cell-based
Method: (§1) Rat DRGN and retinal cultures. […] Cells were cultured for 4 days in a humidified chamber at 37° C. and 5% CO2 before being subjected to quantitative RT-PCR or immunocytochemistry, as described below.

[2] = system: dorsal column (DC) axons; test: T8 dorsal column (DC) crush model of spinal cord injury: axon regeneration, electrophysiology, sensory and locomotor tests; assay type: in vivo, rat; details: for DC axon regeneration: GAP43+ axons rostral to/beyond the lesion site
Method: DC crush injury model. Rats were injected subcutaneously with 0.05 ml Buprenorphine to provide analgesia prior to surgery and anaesthetised using 5% of Isoflurane in 1.8 ml/l of O2 with body temperature and heart rate monitored throughout surgery.
Chk2 inhibition studies in the DC crush injury model. […] Chk1i (LY2603618) was used at equimolar concentrations for each experiment. Rats were killed in a rising concentration of CO2 at either 28 d for immunohistochemistry and western blot analyses or 6 weeks for electrophysiology and functional tests.
Sham treated animals (partial laminectomy but no DC injury) were also included as additional controls. At 4 weeks after DC injury and treatment, ipsilateral L4/L5 DRG pairs were harvested, total RNA extracted using Trizol reagent as described above and knock down of Chk1 and Chk2 mRNA knockdown using quantitative qRT-PCR, as described above. Contralateral L4/L5 DRG pairs were treated the same as above and used as controls. […] This included western blot to determine pChk1 and pChk2 levels after shChk2 treatment. For these experiments, animals were randomly assigned to DC+shNull and DC+shChk2 groups each comprising n=6 rats and repeated on 3 independent occasions (total n=18 rats/group). […] Animals were allowed to survive for 6 weeks with functional testing (tape sensing+removal and ladder crossing tests) performed pre- and post-DC injury as described below. Electrophysiology was performed on the same set of animals at 6 weeks after DC injury and treatment as described below.
Quantification of DC axon regeneration. […] Briefly, the number of intersections of GAP43^+ fibers were counted through a dorsoventral orientated line in reconstructed serial parasagittal sections of the cord (serial 50μm-thick sections ˜70-80 sections/animal; n=10 rats/treatment)). Axon number was then represented as % of fibers counted at 4 mm above the lesion, where the DC was intact.
Electrophysiology. […] Briefly, with the experimenter masked to the treatment conditions, silver wire electrodes applied single-current pulses (0.05 ms) through a stimulus isolation unit in increments (0.2, 0.3, 0.6, 0.8, and 1.2 mA) at L1-L2 and compound action potentials (CAP) were recorded at C4-C5 along the surface of the midline spinal cord. Spike 2 software was then used to calculate CAP amplitudes between the negative deflection after the stimulus artifact and the next peak of the wave. CAP area was calculated by rectifying the negative CAP component (full-wave rectification) and measuring its area. At the different stimulation intensities. […] Representative CAP traces are processed output data from Spike 2 software.
Functional tests. […] Briefly, animals (n=6 rats/group, 3 independent repeats; total n=18/group) received training to master traversing the horizontal ladder for 1w before functional testing. Baseline parameters for all functional tests were established 2-3 d before injury. Animals were then tested 2 d after DC lesion+treatment and then weekly for 6 weeks. Experiments were performed by 2 observers (treatment conditions were masked) in the same order, the same time of day and each test performed for 3 individual trials. Horizontal ladder test: This tests the animals locomotor function and is performed on a 0.9-meter-long horizontal ladder with a diameter of 15.5 cm and randomly adjusted rungs with variable gaps of 3.5-5.0 cm. The total number of steps taken to cross the ladder and the left and right rear paw slips being were recorded and the mean error rate was then calculated by dividing the number of slips by the total number of steps taken.

[3] = system: RGC; test: Rat retinal cultures: RGC survival and neurite outgrowth; assay type: cell-based; details: 1-50 μM
Method: as §1

[4] = system: RGC; test: Glaucoma model (intracameral TGFβ): RGC survival; assay type: in vivo, rat; details: 30 days after the induction of glaucoma
Method: Induction of glaucoma. […] Intraocular pressure was measured using an iCare
Tonolab rebound tonometer (Icare, Helsinki, Finland).

[5] = system: RGC; test: Optic neuritis model: RGC survival and RNFL thickness; assay type: in vivo, mice
Method: Induction of optic neuritis. […] Animals were intraperitoneally injected with 150 ng Bordetella pertussis toxin on day 0 and 2. Animals were monitored daily and assessed for the development of EAE. At the end of the experiment, animals were then killed by CO2 overdose.
Measurement of RNFL thinning using optical coherence tomography (OCT). A Spectralis HRA+OCT machine was used to capture OCT images. Examinations were recorded in both right (oculus dextrus, OD) and left eyes (oculus sinister, OS) of each animal at day 0 and day 21 after immunisation. […] A RNFL single exam using the automatic real time (ART) mode (allows averaging of 100 recordings) was produced for each mouse eye, which automatically measured RNFL thickness (μm) in a 30° circle surrounding the optic nerve head.

[6] = system: RGC; details: 24 days after ONC
[7] = Chk2i: 3 weeks after injury, others over the whole 6 weeks

improvement in RGC function measured by flash electroretinography (ERG) amplitude [6] [%] | Compound | effect on DRGN survival ([1]; 1-50 μM) | neurite outgrowth in DRGN ([1]; 4 days in culture) | DRGN survival ([1]; 4 days in culture, NBA-treated controls 40%) | mean CAP area at different stimulation intensities ([2]; 6 weeks after DC injury) | negative CAP amplitudes ([2]; 6 weeks after DC injury, all stimulation intensities) | ladder crossing test (locomotor function) outcome [2, 7] | tape sensing/removal test (sensory function) outcome [2, 7] | DC axon regeneration [2] | effect on RGC survival [3] | protection of RGC from death [4] | protection of RGC from death ([5]; 21 days after induction) | protection against retinal nerve fibre layer thinning ([5]; OCT at day 21) | effect on ERG traces [6] | % DRGN with neurites ([1]; 4 days in culture) [%] | mean neurite length ([1]; 4 days in culture, controls 12 μm) [μm]
– | Cc1cnc(NC(=O)Nc2cc(Br)c(C)cc2OC[C@@H]2CNCCO2)cn1 [Chk1i] | no effect | no effect | no effect | significantly attenuated | significantly attenuated | significant deficit remains; also recorded: deficit remaining | significant deficit remained | no axon regeneration beyond the lesion site | no effect | no effect | no effect | no effect | no effect | – | –
> 83 | COc1cc2nc(-c3cc(F)ccc3O)nc(N[C@@H]3CNC[C@H]3C(C)(C)O)c2cc1OC [Chk2i] | – | – | – | – | – | – | – | significant DC axon regeneration | – | – | – | – | – | – | –
– | FGF2: positive control for DRGN cultures, pre-optimised 10 ng/ml | – | – | – | – | – | – | – | – | – | – | – | – | – | 42 | 180
